# From ChEMBL document CHEMBL1201861, “Genomics of Drug Sensitity in Cancer screening data, Wellcome Trust Sanger Institute”
# Key:
# Type in all cases: functional, cell-based
# SK-MEL-24 = assay: cells; settings: Homo sapiens;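 further: growth inhibition read out by a cell viability assay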
# Description: SANGER: Inhibition of human SK-MEL-24 cell growth in a cell viability assay.
# KP-4 = assay: cells; settings: Homo sapiens;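 further: human KP-4 cells, with growth inhibition read out through a cell viability assay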
# Description: SANGER: Inhibition of human KP-4 cell growth in a cell viability assay.
# UO-31 = assay: cells; settings: Homo sapiens
# Description: SANGER: Inhibition of human U031 cell growth in a cell viability assay.
# EVSA-T = assay: cells; settings: Homo sapiens;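 further: growth inhibition of EVSA-T cells, read out with a cell viability assay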
# Description: SANGER: Inhibition of human EVSA-T cell growth in a cell viability assay.
# A-375 = assay: cells; settings: Homo sapiens;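 further: growth inhibition of A375 cells, read out with a cell viability assay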
# Description: SANGER: Inhibition of human A375 cell growth in a cell viability assay.
# HT-29 = assay: cells; settings: Homo sapiens;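 further: growth inhibition of human HT-29 cells, read out by a cell viability assay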
# Description: SANGER: Inhibition of human HT-29 cell growth in a cell viability assay.
# A673 = assay: cells; settings: Homo sapiens;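 further: growth inhibition of human A673 cells, read out through a cell viability assay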
# Description: SANGER: Inhibition of human A673 cell growth in a cell viability assay.
# HT-1376 = assay: cells; settings: Homo sapiens
# Description: SANGER: Inhibition of human HT-1376 cell growth in a cell viability assay.
# FTC-133 = assay: cells; settings: Homo sapiens
# HOS = assay: cells; settings: Homo sapiens;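 further: growth inhibition of human HOS cells, read out with a cell viability assay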
# Description: SANGER: Inhibition of human HOS cell growth in a cell viability assay.
# NCI-H1694 = assay: cells; settings: Homo sapiens;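 further: cell viability assay measuring inhibition of growth in human NCI-H1694 cells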
# Description: SANGER: Inhibition of human NCI-H1694 cell growth in a cell viability assay.
# NCI-H345 = assay: cells; settings: Homo sapiens;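 further: growth inhibition of NCI-H345 cells measured with a cell viability assay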
# Description: SANGER: Inhibition of human NCI-H345 cell growth in a cell viability assay.
# G-361 = assay: cells; settings: Homo sapiens
# HCC1954 = assay: cells; settings: Homo sapiens;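 further: growth inhibition of human HCC1954 cells, read out with a cell viability assay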
# Description: SANGER: Inhibition of human HCC1954 cell growth in a cell viability assay.
# NCI-H1792 = assay: cells; settings: Homo sapiens;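 further: growth inhibition of human NCI-H1792 cells, read out as cell viability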
# Description: SANGER: Inhibition of human NCI-H1792 cell growth in a cell viability assay.
# DU-145 = assay: cells; settings: Homo sapiens
# Description: SANGER: Inhibition of human DU-145 cell growth in a cell viability assay.
# IGROV-1 = assay: cells; settings: Homo sapiens;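 further: reduction of IGROV-1 cell growth, read out with a viability assay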
# Description: SANGER: Inhibition of human IGROV-1 cell growth in a cell viability assay.
# TALL-1 = assay: cells; settings: Homo sapiens;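 further: growth inhibition of cultured human TALL-1 cells, read out by a cell viability assay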
# Description: SANGER: Inhibition of human TALL-1 cell growth in a cell viability assay.
# ASPC1 = assay: cells; settings: Homo sapiens;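 further: growth inhibition of AsPC-1 cells, read out with a cell viability assay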
# Description: SANGER: Inhibition of human AsPC-1 cell growth in a cell viability assay.
# LU-99A = assay: cells; settings: Homo sapiens;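 further: growth inhibition of LU-99A cells, read out with a cell viability assay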
# Description: SANGER: Inhibition of human LU-99A cell growth in a cell viability assay.
# SCC-9 = assay: cells; settings: Homo sapiens;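 further: Read-out is a cell viability assay, with values giving inhibition of cell growth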
# Description: SANGER: Inhibition of human SCC-9 cell growth in a cell viability assay.
# HTC-C3 = assay: cells; settings: Homo sapiens;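 further: inhibition of cell growth, read out with a cell viability assay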
# Description: SANGER: Inhibition of human HTC-C3 cell growth in a cell viability assay.
# GCT = assay: cells; settings: Homo sapiens;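 further: GCT cell line proliferation inhibition, read out with a cell viability assay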
# Description: SANGER: Inhibition of human GCT cell growth in a cell viability assay.
# 23132-87 = assay: cells; settings: Homo sapiens
# Description: SANGER: Inhibition of human 23132-87 cell growth in a cell viability assay.
# CPC-N = assay: cells; settings: Homo sapiens;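 further: growth inhibition of CPC-N cells, with a cell viability assay as the readout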
# Description: SANGER: Inhibition of human CPC-N cell growth in a cell viability assay.
# KYSE-450 = assay: cells; settings: Homo sapiens;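 further: cell growth inhibition measured by a viability assay in human KYSE-450 cells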
# Description: SANGER: Inhibition of human KYSE-450 cell growth in a cell viability assay.
# MRK-nu-1 = assay: cells; settings: Homo sapiens;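 further: cell viability assay measuring growth suppression of human MRK-nu-1 cells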
# Description: SANGER: Inhibition of human MRK-nu-1 cell growth in a cell viability assay.
# AU565 = assay: cells; settings: Homo sapiens;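 further: cell viability assay measuring growth inhibition of human AU565 cells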
# Description: SANGER: Inhibition of human AU565 cell growth in a cell viability assay.
# HT-3 = assay: cells; settings: Homo sapiens;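 further: growth inhibition measured with a cell viability readout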
# Description: SANGER: Inhibition of human HT-3 cell growth in a cell viability assay.
# RO82-W-1 = assay: cells; settings: Homo sapiens;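 further: growth inhibition of human RO82-W-1 cells, measured with a cell viability assay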
# Description: SANGER: Inhibition of human RO82-W-1 cell growth in a cell viability assay.
# LN-405 = assay: cells; settings: Homo sapiens
# Description: SANGER: Inhibition of human LN-405 cell growth in a cell viability assay.
# HLE = assay: cells; settings: Homo sapiens;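 further: growth inhibition of human HLE cells, read out by a cell viability assay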
# Description: SANGER: Inhibition of human HLE cell growth in a cell viability assay.
# U-118-MG = assay: cells; settings: Homo sapiens
# Description: SANGER: Inhibition of human U-118-MG cell growth in a cell viability assay.
# HSC-2 = assay: cells; settings: Homo sapiens;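 further: growth inhibition of human HSC-2 cells, read out by a cell viability assay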
# Description: SANGER: Inhibition of human HSC-2 cell growth in a cell viability assay.
# CAL-62 = assay: cells; settings: Homo sapiens;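 further: growth inhibition of CAL-62 cells, read out with a cell viability assay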
# Description: SANGER: Inhibition of human CAL-62 cell growth in a cell viability assay.
# RL = assay: cells; settings: Homo sapiens
# Description: SANGER: Inhibition of human RL cell growth in a cell viability assay.
# KOSC-2 = assay: cells; settings: Homo sapiens;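 further: growth inhibition of KOSC-2 cells, read out by a cell viability assay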
# Description: SANGER: Inhibition of human KOSC-2 cell growth in a cell viability assay.
# HuO9 = assay: cells; settings: Homo sapiens;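 further: growth inhibition of HuO9 cells, read out with a cell viability assay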
# Description: SANGER: Inhibition of human HuO9 cell growth in a cell viability assay.
# MDA-MB-134-VI = assay: cells; settings: Homo sapiens
# Description: SANGER: Inhibition of human MDA-MB-134-VI cell growth in a cell viability assay.
# JIYOYE = assay: cells; settings: Homo sapiens
# Description: SANGER: Inhibition of human JiyoyeP-2003 cell growth in a cell viability assay.
# HGC-27 = assay: cells; settings: Homo sapiens;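 further: growth inhibition of human HGC-27 cells, read out in a cell viability assay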
# Description: SANGER: Inhibition of human HGC-27 cell growth in a cell viability assay.
# NCI-H1882 = assay: cells; settings: Homo sapiens;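 further: growth inhibition of the cell line, determined with a viability assay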
# Description: SANGER: Inhibition of human NCI-H1882 cell growth in a cell viability assay.
# A204 = assay: cells; settings: Homo sapiens;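 further: growth inhibition of human A204 cells, read out with a cell viability assay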
# Description: SANGER: Inhibition of human A204 cell growth in a cell viability assay.
# MDA-MB-157 = assay: cells; settings: Homo sapiens
# Description: SANGER: Inhibition of human MDA-MB-157 cell growth in a cell viability assay.
# NCI-H1563 = assay: cells; settings: Homo sapiens;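 further: growth inhibition of human NCI-H1563 cells, read out with a cell viability assay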
# Description: SANGER: Inhibition of human NCI-H1563 cell growth in a cell viability assay.
# CWR22R = assay: cells; settings: Homo sapiens, 22Rv1;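 further: growth inhibition of 22Rv1 cells, read out with a cell viability assay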
# Description: SANGER: Inhibition of human 22RV1 cell growth in a cell viability assay.
# NCI-H28 = assay: cells; settings: Homo sapiens;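 further: growth inhibition of human NCI-H28 cells, read out as cell viability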
# Description: SANGER: Inhibition of human NCI-H28 cell growth in a cell viability assay.
# RPMI-6666 = assay: cells; settings: Homo sapiens
# Description: SANGER: Inhibition of human RPMI-6666 cell growth in a cell viability assay.
# ESS-1 = assay: cells; settings: Homo sapiens;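 further: growth inhibition of human ESS-1 cells, read out by a cell viability assay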
# Description: SANGER: Inhibition of human ESS-1 cell growth in a cell viability assay.
# HuP-T3 = assay: cells; settings: Homo sapiens;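 further: HuP-T3 cell growth inhibition, read out with a cell viability assay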
# Description: SANGER: Inhibition of human HuP-T3 cell growth in a cell viability assay.
# SW626 = assay: cells; settings: Homo sapiens;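 further: growth inhibition of SW626 cells, measured with a cell viability assay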
# Description: SANGER: Inhibition of human SW626 cell growth in a cell viability assay.
# SW48 = assay: cells; settings: Homo sapiens;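 further: growth inhibition of SW48 cells, read out with a cell viability assay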
# Description: SANGER: Inhibition of human SW48 cell growth in a cell viability assay.
# NCCIT = assay: SANGER: Inhibition of human NCCIT cell growth in a cell viability assay.
# CAL-85-1 = assay: cells; settings: Homo sapiens;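 further: growth inhibition of human CAL-85-1 cells, read out with a cell viability assay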
# Description: SANGER: Inhibition of human CAL-85-1 cell growth in a cell viability assay.
# CAL-51 = assay: cells; settings: Homo sapiens;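 further: human CAL-51 cell line, growth inhibition read out via a cell viability assay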
# Description: SANGER: Inhibition of human CAL-51 cell growth in a cell viability assay.
# CaR-1 = assay: cells; settings: Homo sapiens;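 further: growth inhibition of human CaR-1 cancer cells, read out with a cell viability assay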
# Description: SANGER: Inhibition of human CaR-1 cell growth in a cell viability assay.
# NCI-H2081 = assay: cells; settings: Homo sapiens;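 further: growth inhibition of human NCI-H2081 cells, read out with a cell viability assay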
# Description: SANGER: Inhibition of human NCI-H2081 cell growth in a cell viability assay.
# SN12C = assay: cells; settings: Homo sapiens;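 further: growth inhibition of human SN12C cells, measured by a cell viability assay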
# Description: SANGER: Inhibition of human SN12C cell growth in a cell viability assay.
# SNU-449 = assay: cells; settings: Homo sapiens
# Description: SANGER: Inhibition of human SNU-449 cell growth in a cell viability assay.
# SK-N-AS = assay: cells; settings: Homo sapiens;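 further: growth inhibition of human SK-N-AS cells, measured with a cell viability assay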
# Description: SANGER: Inhibition of human SK-N-AS cell growth in a cell viability assay.
# HCC70 = assay: cells; settings: Homo sapiens;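 further: cell viability assay measuring how strongly the compound suppresses proliferation of HCC70 cells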
# Description: SANGER: Inhibition of human HCC70 cell growth in a cell viability assay.
# SAOS-2 = assay: cells; settings: Homo sapiens;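 further: growth inhibition of human Saos-2 cells determined by a cell viability assay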
# Description: SANGER: Inhibition of human Saos-2 cell growth in a cell viability assay.
# NCI-H1793 = assay: cells; settings: Homo sapiens;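 further: cell growth inhibition, read out by a cell viability assay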
# Description: SANGER: Inhibition of human NCI-H1793 cell growth in a cell viability assay.
# MIA PaCa-2 = assay: cells; settings: Homo sapiens
# Description: SANGER: Inhibition of human MIA-PaCa-2 cell growth in a cell viability assay.
structure (smiles),measurement,setting,value
O=c1[nH]c2ccccc2n1C1CCN(Cc2ccc(-c3nc4cc5[nH]cnc5cc4nc3-c3ccccc3)cc2)CC1,IC50,SK-MEL-24,> 2560 nM
same,IC50,KP-4,> 2560 nM
same,IC50,UO-31,> 2560 nM
same,IC50,EVSA-T,> 2560 nM
same,IC50,A-375,> 2560 nM
same,IC50,HT-29,2430 nM
same,IC50,A673,> 2560 nM
same,IC50,HT-1376,> 2560 nM
same,IC50,FTC-133,> 2560 nM
same,IC50,HOS,> 2560 nM
same,IC50,NCI-H1694,> 2560 nM
same,IC50,NCI-H345,> 2560 nM
same,IC50,G-361,> 2560 nM
same,IC50,HCC1954,> 2560 nM
same,IC50,NCI-H1792,> 2560 nM
same,IC50,DU-145,> 2560 nM
same,IC50,IGROV-1,723 nM
same,IC50,TALL-1,> 2560 nM
same,IC50,ASPC1,> 2560 nM
same,IC50,LU-99A,> 2560 nM
same,IC50,SCC-9,> 2560 nM
same,IC50,HTC-C3,> 2560 nM
same,IC50,GCT,> 2560 nM
same,IC50,23132-87,759 nM
same,IC50,CPC-N,> 2560 nM
same,IC50,KYSE-450,> 2560 nM
same,IC50,MRK-nu-1,> 2560 nM
same,IC50,AU565,1240 nM
same,IC50,HT-3,> 2560 nM
same,IC50,RO82-W-1,> 2560 nM
same,IC50,LN-405,> 2560 nM
same,IC50,HLE,> 2560 nM
same,IC50,U-118-MG,> 2560 nM
same,IC50,HSC-2,> 2560 nM
same,IC50,CAL-62,> 2560 nM
same,IC50,RL,> 2560 nM
same,IC50,KOSC-2,> 2560 nM
same,IC50,HuO9,1550 nM
same,IC50,MDA-MB-134-VI,> 2560 nM
same,IC50,JIYOYE,> 2560 nM
same,IC50,HGC-27,150 nM
same,IC50,NCI-H1882,> 2560 nM
same,IC50,A204,> 2560 nM
same,IC50,MDA-MB-157,> 2560 nM
same,IC50,NCI-H1563,542 nM
same,IC50,CWR22R,> 2560 nM
same,IC50,NCI-H28,> 2560 nM
same,IC50,RPMI-6666,> 2560 nM
same,IC50,ESS-1,> 2560 nM
same,IC50,HuP-T3,> 2560 nM
same,IC50,SW626,> 2560 nM
same,IC50,SW48,> 2560 nM
same,IC50,NCCIT,> 2560 nM
same,IC50,CAL-85-1,> 2560 nM
same,IC50,CAL-51,> 2560 nM
same,IC50,CaR-1,> 2560 nM
same,IC50,NCI-H2081,> 2560 nM
same,IC50,SN12C,> 2560 nM
same,IC50,SNU-449,> 2560 nM
same,IC50,SK-N-AS,> 2560 nM
same,IC50,HCC70,751 nM
same,IC50,SAOS-2,> 2560 nM
same,IC50,NCI-H1793,> 2560 nM
same,IC50,MIA PaCa-2,> 2560 nM
Fc1cc(-c2cc[nH]/c(=N/c3ccc(-n4cnc(N5CCOCC5)n4)cc3)n2)cc(N2CCOCC2)c1,IC50,SK-MEL-24,> 5120 nM
same,IC50,KP-4,577 nM
same,IC50,UO-31,519 nM
same,IC50,EVSA-T,1270 nM
same,IC50,A-375,623 nM
same,IC50,HT-29,358 nM
same,IC50,A673,1120 nM
same,IC50,HT-1376,1460 nM
same,IC50,FTC-133,> 5120 nM
same,IC50,HOS,613 nM
same,IC50,NCI-H1694,1500 nM
same,IC50,NCI-H345,4540 nM
same,IC50,G-361,266 nM
same,IC50,HCC1954,1220 nM
same,IC50,NCI-H1792,2490 nM
same,IC50,DU-145,480 nM
same,IC50,IGROV-1,97.7 nM
same,IC50,TALL-1,> 5120 nM
same,IC50,ASPC1,3800 nM
same,IC50,LU-99A,740 nM
same,IC50,SCC-9,218 nM
same,IC50,HTC-C3,1240 nM
same,IC50,GCT,204 nM
same,IC50,23132-87,623 nM
same,IC50,CPC-N,4220 nM
same,IC50,KYSE-450,329 nM
same,IC50,MRK-nu-1,545 nM
same,IC50,AU565,285 nM
same,IC50,HT-3,102 nM
same,IC50,RO82-W-1,> 5120 nM
same,IC50,LN-405,991 nM
same,IC50,HLE,624 nM
same,IC50,U-118-MG,> 5120 nM
same,IC50,HSC-2,223 nM
same,IC50,CAL-62,893 nM
same,IC50,RL,1590 nM
same,IC50,KOSC-2,531 nM
same,IC50,HuO9,638 nM
same,IC50,MDA-MB-134-VI,4680 nM
same,IC50,JIYOYE,263 nM
same,IC50,HGC-27,284 nM
same,IC50,NCI-H1882,1080 nM
same,IC50,A204,165 nM
same,IC50,MDA-MB-157,457 nM
same,IC50,NCI-H1563,320 nM
same,IC50,CWR22R,1010 nM
same,IC50,NCI-H28,340 nM
same,IC50,RPMI-6666,296 nM
same,IC50,ESS-1,659 nM
same,IC50,HuP-T3,> 5120 nM
same,IC50,SW626,1090 nM
same,IC50,SW48,742 nM
same,IC50,NCCIT,398 nM
same,IC50,CAL-85-1,881 nM
same,IC50,CAL-51,219 nM
same,IC50,CaR-1,1880 nM
same,IC50,NCI-H2081,1500 nM
same,IC50,SN12C,1150 nM
same,IC50,SNU-449,522 nM
same,IC50,SK-N-AS,1210 nM
same,IC50,HCC70,350 nM
same,IC50,SAOS-2,1780 nM
same,IC50,NCI-H1793,1210 nM
same,IC50,MIA PaCa-2,1400 nM
